Laboratory results: US6787651B2, “Substituted indoles, pharmaceutical compounds containing such indoles and their use as PPAR-γ binding agents” (SmithKline Beecham Corporation, priority 2000, dated 2004)
pIC50: −log10 of the molar value. Read-outs that look alike come from different tables or passages of the source.

Legend:
[1] = target: T1, PPARγ ligand binding domain (LBD) (amino acids 195-475) (Homo sapiens, UniProt P37231); assay: PPAR-γ binding assay (spin plate / gel filtration binding assay, displacement of [3H]BRL 49653)
T1 construct: polyHis; made in house; host or cells: Escherichia coli
T1 sequence (P37231 195-475 isoform P37231-2): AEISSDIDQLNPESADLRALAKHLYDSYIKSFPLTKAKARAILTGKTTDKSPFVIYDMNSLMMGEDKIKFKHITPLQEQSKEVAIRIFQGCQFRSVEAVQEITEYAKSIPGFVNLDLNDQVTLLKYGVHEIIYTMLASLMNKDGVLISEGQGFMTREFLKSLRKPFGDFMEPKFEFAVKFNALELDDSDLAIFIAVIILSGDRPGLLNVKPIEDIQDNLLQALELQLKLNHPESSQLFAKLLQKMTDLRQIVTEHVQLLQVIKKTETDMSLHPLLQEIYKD
Description: The activity of a given compound in binding to PPAR-γ can be assayed routinely according to procedures known in the art. […] The PPAR-γ binding assay described below was used to determine the PPAR-γ binding activities of the compounds of the invention.
Compounds were tested for their ability to bind to PPARγ using a spin plate assay (gel filtration binding assay). […] Each compound was tested in triplicate. […] The plates were centrifuged (Beckman GS-6R) at 2500 rpm for 5 minutes, 170 μl Scitisafe® scintillation fluid (Fisher) was added to each well, the plates were sealed, and after 1 hour, were counted in a Wallac MicroBeta counter. The amount of nonspecific binding, as assessed by control wells containing 10 μM of the corresponding unlabeled ligand, was subtracted from each data point. For each compound tested, the data was averaged and plots of ligand concentration versus CPM of radioligand bound were constructed. Apparent IC50 values were estimated from nonlinear least-squares fit of the data assuming simple competitive binding.

[2] = read-out: IC50 range in the PPAR-γ Binding Assay

Row | Structure (SMILES) | melting point | pIC50 [1, 2] | pIC50 [1]
1 | COc1cccc(Cn2c(C(=O)O)c(-c3ccc(OCC4CC4)cc3)c3cc(OCc4ccccc4)ccc32)c1 [Example 229, 5-(Benzyloxy)-3-[4-(cyclopropylmethoxy)phenyl]-1-(3-methoxybenzyl)-1H-indole-2-carboxylic acid] | 185 to 187 °C |  | 
2 | COc1ccc(Cc2c(C(=O)O)n(CC3CC3)c3ccccc23)cc1 [Example 230, 1-(Cyclopropylmethyl)-3-[(4-methoxyphenyl)methyl]indole-2-carboxylic acid] | 162 to 163 °C | 5.00 to 8.00 | 
3 | O=C(O)c1c(C=C2CC2)c2ccccc2n1Cc1cccc(C(F)(F)F)c1 [Example 231, 3-(Cyclopropylidenemethyl)-1-[3-(trifluoromethyl)benzyl]-1H-indole-2-carboxylic acid] | 148 to 150 °C | 8.00 to 10.00 | 
4 | O=C(O)c1c(-c2cc3ccccc3o2)c2ccccc2n1Cc1cccc(C(F)(F)F)c1 [Example 235] | 211 to 214 °C | 8.00 to 10.00 | 
5 | CC(=O)c1ccc(-c2c(C(=O)O)n(Cc3cccc(C(F)(F)F)c3)c3ccccc23)s1 [Example 236] | 212 to 214 °C | 8.00 to 10.00 | 
6 | O=C(O)c1c(-c2ccco2)c2ccccc2n1Cc1cccc(C(F)(F)F)c1 [Example 237] | 172 to 173 °C | 8.00 to 10.00 | 
7 | COc1cccc(Cn2c(C(=O)O)c(-c3ccc(-c4ccco4)cc3)c3ccccc32)c1 [Example 240] | 190 to 192 °C | 8.00 to 10.00 | 
8 | COc1ccc(C(=O)c2c(C(=O)O)n(Cc3cccc(OC)c3)c3ccccc23)cc1 [Example 241] | 68 to 69 °C |  | 5.00 to 8.00
9 | COc1ccc(C(=O)c2c(C(=O)O)n(Cc3cccc(C(F)(F)F)c3)c3ccccc23)cc1 [Example 242] | 215 to 216 °C |  | 5.00 to 8.00
10 | O=C(O)c1c(/C=C/c2ccccc2)c2ccccc2n1Cc1cccc(C(F)(F)F)c1 [Example 243] | 183 to 185 °C | 8.00 to 10.00 | 
11 | O=C(O)c1c(C#Cc2ccccc2)c2ccccc2n1Cc1cccc(C(F)(F)F)c1 [Example 244] | 165 to 167 °C | 8.00 to 10.00 | 
12 | O=C(O)c1c(CC2CC2)c2ccccc2n1Cc1cccc(C(F)(F)F)c1 [Example 264] | 174 to 175 °C | 8.00 to 10.00 | 
13 | COc1cccc(Cn2c(C(=O)O)c(CC3CC3)c3ccccc32)c1 [Example 265] | 165 to 167 °C | 8.00 to 10.00 | 
14 | COc1cccc(Cn2c(C(=O)O)c(-c3ccc(C(C)(C)C)cc3)c3cc(COCC4CC4)ccc32)c1 [Example 266] | 79 to 80 °C | 8.00 to 10.00 | 
15 | COc1cccc(Cn2c(C(=O)O)c(-c3ccc(C(C)(C)C)cc3)c3cc(NC(=O)C4CC4)ccc32)c1 [Example 268] | 194 to 196 °C | 8.00 to 10.00 | 
16 | COc1cccc(Cn2c(C(=O)O)c(-c3ccc(C(C)(C)C)cc3)c3cc(NC(=O)C4CCCC4)ccc32)c1 [Example 269] | 154 to 156 °C | 5.00 to 8.00 | 
17 | COc1cccc(Cn2c(C(=O)O)c(-c3ccc(C(C)(C)C)cc3)c3cc(NC(=O)NCC4CC4)ccc32)c1 [Example 270] | 141 to 142 °C | 5.00 to 8.00 | 
18 | COc1ccc(-c2c(C(=O)O)n(CC(=O)c3ccccc3)c3ccccc23)cc1 [Example 281] |  | 5.00 to 8.00 | 
19 | COc1cccc(-c2c(C(=O)O)n(Cc3cccc(OCC4CC4)c3)c3ccccc23)c1 [Example 283] |  | 8.00 to 10.00 | 
20 | CCOc1ccc(-c2c(C(=O)O)n(Cc3ccc(F)cc3)c3c(NC(=O)C4CC4)cccc23)cc1 [Example 285] | 250 °C |  | 
21 | COc1cccc(Cn2c(C(=O)O)c(-c3ccc(C(=O)N(C)C4CCCC4)cc3)c3ccccc32)c1 [Example 304] |  | 8.00 to 10.00 | 
22 | COc1cccc(Cn2c(C(=O)O)c(-c3ccc(OCC4CC4)cc3)c3ccccc32)c1 [Example 305, 3-[4-(Cyclopropylmethoxy)phenyl]-1-(3-methoxybenzyl)-1H-indole-2-carboxylic acid] |  | 8.00 to 10.00 | 
23 | COc1cccc(Cn2c(C(=O)O)c(-c3ccc(OCC4CCCCO4)cc3)c3ccccc32)c1 (stereo not shown) [Example 306] |  | 5.00 to 8.00 | 
24 | COc1cccc(Cn2c(C(=O)O)c(-c3ccc(OCc4ccc5ccccc5n4)cc3)c3ccccc32)c1 [Example 307] |  | 8.00 to 10.00 | 
25 | O=C(O)c1c(-c2ccc(OCC3CC3)cc2)c2ccccc2n1Cc1cccc(C(F)(F)F)c1 [Example 308] |  | 8.00 to 10.00 | 
26 | COc1cccc(Cn2c(C(=O)O)c(-c3ccc(OCC(=O)c4ccc(N5CCCC5)cc4)cc3)c3ccccc32)c1 [Example 310] |  | 5.00 to 8.00 | 

Row | Structure (SMILES) | melting point | pIC50 [1, 2] | pIC50 [1]
27 | COCCOc1ccc2c(c1)c(-c1ccc(OCC3CC3)cc1)c(C(=O)O)n2Cc1cccc(OC)c1 [Example 312] |  | 8.00 to 10.00 | 
28 | COc1cccc(Cn2c(C(=O)O)c(-c3ccc(OCC4CC4)cc3)c3cc(OCC=O)ccc32)c1 [Example 313] |  | 8.00 to 10.00 | 
29 | COc1cccc(Cn2c(C(=O)O)c(-c3ccc(OCC4CC4)cc3)c3cc(OCC4CCC4)ccc32)c1 [Example 314] |  | 8.00 to 10.00 | 
30 | COc1cccc(COc2ccc3c(c2)c(-c2ccc(OCC4CC4)cc2)c(C(=O)O)n3Cc2cccc(OC)c2)c1 [Example 315] |  | 8.00 to 10.00 | 
31 | COc1cccc(Cn2c(C(=O)O)c(-c3ccc(OCC4CC4)cc3)c3cc(OCc4ccc(C(C)(C)C)cc4)ccc32)c1 [Example 318] |  | 5.00 to 8.00 | 
32 | COc1cccc(Cn2c(C(=O)O)c(-c3ccc(OCC4CC4)cc3)c3cc(OCc4ccc(C(F)(F)F)cc4)ccc32)c1 [Example 319] |  | 5.00 to 8.00 | 
33 | COc1cccc(Cn2c(C(=O)O)c(-c3ccc(OCC4CC4)cc3)c3cc(OCCCc4ccccc4)ccc32)c1 [Example 320] |  | 8.00 to 10.00 | 
34 | COc1cccc(Cn2c(C(=O)O)c(-c3ccc(OCC4CC4)cc3)c3cc(OCc4cccc(C(F)(F)F)c4)ccc32)c1 [Example 321] |  | 8.00 to 10.00 | 
35 | COc1cccc(Cn2c(C(=O)O)c(-c3ccc(OCC4CC4)cc3)c3cc(OCc4ccc(C(=O)O)cc4)ccc32)c1 [Example 322] |  | 5.00 to 8.00 | 
36 | COc1cccc(Cn2c(C(=O)O)c(-c3cccc(NC(=O)C4CC4)c3)c3ccccc32)c1 [Example 326] |  | 5.00 to 8.00 | 
37 | CCOc1ccc2c(c1)c(-c1ccc(OCC3CC3)cc1)c(C(=O)O)n2Cc1cccc(OC)c1 [Example 330, 3-[4-(Cyclopropylmethoxy)phenyl]-5-ethoxy-1-(3-methoxybenzyl)-1H-indole-2-carboxylic acid] |  | 8.00 to 10.00 | 
38 | CCCOc1ccc2c(c1)c(-c1ccc(OCC3CC3)cc1)c(C(=O)O)n2Cc1cccc(OC)c1 [Example 331] |  | 8.00 to 10.00 | 
39 | CCCCOc1ccc2c(c1)c(-c1ccc(OCC3CC3)cc1)c(C(=O)O)n2Cc1cccc(OC)c1 [Example 332] |  | 8.00 to 10.00 | 
40 | C=CCOc1ccc2c(c1)c(-c1ccc(OCC3CC3)cc1)c(C(=O)O)n2Cc1cccc(OC)c1 [Example 333] |  | 5.00 to 8.00 | 
41 | COc1cccc(Cn2c(C(=O)O)c(-c3ccc(OCC4CC4)cc3)c3cc(OCC4CC4)ccc32)c1 [Example 334] |  | 8.00 to 10.00 | 
42 | COc1ccc(-c2c(C(=O)O)n(S(=O)(=O)c3cccc(C(F)(F)F)c3)c3ccccc23)cc1 [Example 337, 3-(4-Methoxyphenyl)-1-{[3-(trifluoromethyl)phenyl]sulfonyl}indole-2-carboxylic acid] |  | 5.00 to 8.00 | 
43 | COc1ccc(-c2c(C(=O)O)n(C(=O)c3cccc(C(F)(F)F)c3)c3ccccc23)cc1 [Example 338, 3-(4-Methoxyphenyl)-1-{[3-(trifluoromethyl)phenyl]carbonyl}indole-2-carboxylic Acid] |  | 5.00 to 8.00 | 
44 | O=C(O)c1c(-c2cccc(OCC3CC3)c2)c2ccccc2n1Cc1cccc(OC(F)(F)F)c1 [Example 340] |  | 8.00 to 10.00 | 
45 | CC(=O)c1cnc(-c2c(C(=O)O)n(Cc3cccc(C(F)(F)F)c3)c3ccccc23)s1 [Example 342] |  | 8.00 to 10.00 | 
46 | COc1cccc(Cn2c(C(=O)O)c(-c3ncc(C4CC4)s3)c3ccccc32)c1 [Example 344] |  | 8.00 to 10.00 | 
47 | CCOc1ccc(-c2c(C(=O)O)n(Cc3ccc(F)cc3)c3ccc(CCOCC4CC4)cc23)cc1 [Example 348, 5-[2-(Cyclopropylmethoxy)ethyl]-3-(4-ethoxyphenyl)-1-(4-fluorobenzyl)-1H-indole-2-carboxylic acid] |  | 8.00 to 10.00 | 
48 | COc1ccc(-c2c(C(=O)O)n(/C=C/c3ccccc3)c3ccccc23)cc1 [Example 349, 1-((1E)-2-Phenylvinyl)-3-(4-methoxyphenyl)indole-2-carboxylate] |  | 8.00 to 10.00 | 
49 | O=C(O)c1c(-c2ccc(S(=O)(=O)C3CC3)cc2)c2ccccc2n1Cc1cccc(C(F)(F)F)c1 [Example 353, 3-[4-(Cyclopropylsulfonyl)phenyl]-1-{[3-(trifluoromethyl)phenyl]methyl}indole-2-carb-oxylic acid] |  | 8.00 to 10.00 | 
50 | COc1ccc(-c2c(C(=O)NS(=O)(=O)c3ccc(OC)cc3)n(Cc3cccc(C(F)(F)F)c3)c3ccccc23)cc1 [Example 357] |  | 8.00 to 10.00 | 
51 | COc1ccc(-c2c(C(=O)C(F)(F)F)n(Cc3cccc(C(F)(F)F)c3)c3ccccc23)cc1 [Example 360, 2,2,2-Trifluoro-1-{3-(4-methoxyphenyl)-1-[3-(trifluoromethyl)benzyl]-1H-indol-2-yl}ethanone] |  | 5.00 to 8.00 | 
